Like-named read-outs stand apart in the source and are kept apart here.
Tests used:
full-length human RORγt = full-length human RORγt (Homo sapiens (Human), UniProt P51449); experiment: RORγt (full-length human) reporter assay, Conditions B or C; assay type: cell-based; conditions: for RORγt (FL) Reporter Assay B or C, % inhibition (value marked *): marked *: footnote not given; for inhibition at 6 µM: read-out: RORγt (FL) Reporter Assay B or C, % inhibition @ 6 μM, Conditions B or C; for inhibition at 3 µM: at 3 μM compound concentration, read-out: RORγt (FL) Reporter Assay B or C, % inhibition
Sequence of full-length human RORγt (P51449 other isoform, or with tags, fused parts or gaps): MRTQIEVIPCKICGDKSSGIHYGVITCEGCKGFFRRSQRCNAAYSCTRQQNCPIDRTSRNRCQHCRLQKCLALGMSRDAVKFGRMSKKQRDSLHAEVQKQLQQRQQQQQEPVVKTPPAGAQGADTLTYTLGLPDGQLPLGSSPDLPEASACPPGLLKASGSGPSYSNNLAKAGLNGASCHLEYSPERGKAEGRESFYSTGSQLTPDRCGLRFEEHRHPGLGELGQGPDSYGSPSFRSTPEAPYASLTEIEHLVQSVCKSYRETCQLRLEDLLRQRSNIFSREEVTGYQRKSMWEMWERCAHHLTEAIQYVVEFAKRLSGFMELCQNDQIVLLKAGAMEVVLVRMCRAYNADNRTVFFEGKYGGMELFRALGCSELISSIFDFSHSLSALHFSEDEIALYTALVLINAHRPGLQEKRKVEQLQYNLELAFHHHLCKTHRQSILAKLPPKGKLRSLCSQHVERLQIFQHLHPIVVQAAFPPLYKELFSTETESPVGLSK
Method in brief: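 HEK293T cells transiently co-transfected with GAL4-DBD–full-length human RORγt (nt 142-1635, NM_001001523.1) plus GAL4-firefly and CMV-Renilla luciferase reporters; compounds added 4-6 h post-transfection for 16-20 h in 1.3% FBS, 0.1% DMSO. Firefly signal normalized to DMSO and saturating reference compound, then to Renilla; IC50 from concentration plots.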

[1] = system: IL-17 production by CD4 T cells; experiment: Human Th17 assay; assay type: cell-based
Excerpt: The human Th17 assay tests the effect of RORγt modulatory compounds on IL-17 production by CD4 T cells under conditions which favor Th17 differentiation. Total CD4^+ T cells were isolated from the peripheral blood mononuclear cells (PBMC) of healthy donors using a CD4^+ T cell isolation kit II, following the manufacturer's instructions (Miltenyi Biotec). Cells were resuspended in a medium of RPMI-1640 supplemented with 10% fetal bovine serum, penicillin, streptomycin, glutamate, and β-mercaptoethanol and were added to 96-well plates at 1.5×10^5 per 100 μL per well. 50 μL of compound at titrated concentrations in DMSO were added into each well at final DMSO concentration at 0.2%. Cells were incubated for 1 hour, then 50 μL of Th17 cell differentiation medium was added to each well. The final concentrations of antibodies and cytokines (R&D Systems) in differentiation medium were: 3×10^6/mL anti-CD3/CD28 beads (prepared using human T cell activation/expansion kit, Miltenyi Biotec), 10 μg/mL anti-IL4, 10 μg/mL anti-IFNγ, 10 ng/mL IL1β, 10 ng/mL IL23, 50 ng/mL IL6, 3 ng/mL TGFβ and 20 U/mL IL2. Cells were cultured at 37° C. and 5% CO2 for 3 days. Supernatants were collected and the accumulated IL-17 in culture was measured by using MULTI-SPOT® Cytokine Plate following manufacture's instruction (Meso Scale Discovery). The plate was read using Sector Imager 6000, and IL-17 concentration was extrapolated from the standard curve. The IC50s were determined by GraphPad.

[2] = read-out: Human Th17 Assay, IC50 (μM)
[3] = Conditions B or C, read-out: RORγt (FL) Reporter Assay B or C, IC50
[4] = read-out: Human Th17 Assay, IC50
[5] = read-out: RORγt (FL) Reporter Assay B or C, IC50

Row | SMILES | RORγt (FL) Reporter Assay B or C, % inhibition (value marked *) (full-length human RORγt; Conditions B or C) | IC50 (full-length human RORγt; [3]) [µM] | inhibition at 6 µM (full-length human RORγt) [%] | IC50 [1, 4] [µM] | inhibition at 3 µM (full-length human RORγt) [%] | IC50 (full-length human RORγt; [5]) [µM] | IC50 (full-length human RORγt; RORγt (FL) Reporter Assay B or C, IC50 (μM), Conditions B or C) [µM] | IC50 [1, 2] [µM]
1 | CC(C)(O)CNC(=O)c1nc(C(=O)N2C3CCC2CC3)c(-c2cnc(NC3(C)CCC3)cc2C(F)F)s1 [Example 169, 4-((1s,4s)-7-Azabicyclo[2.2[1]heptane-7-carbonyl)-5-(4-(difluoromethyl)-6-((1-methylcyclobutyl)amino)pyridine-3-yl)-N-(2-hydroxy-2-methylpropyl))thiazole-2-carboxamide] | 94* % |  |  |  |  |  | 0.012 | 0.034
2 | C[C@H](Nc1cc(C(F)(F)F)c(-c2sc(C(=O)NCC(C)(C)O)nc2C(=O)N2CCC[C@@H]2C)cn1)C1CC1 [Example 40, 5-(6-(((S)-1-Cyclopropylethyl)amino)-4-(trifluoromethyl)pyridin-3-yl)-N-(2-hydroxy-2-methylpropyl)-4-((S)-2-methylpyrrolidine-1-carbonyl)thiazole-2-carboxamide] |  | 0.013 | 102 | 0.056 |  |  |  | 
3 | C[C@H]1CCCCN1C(=O)c1nc(C(=O)NCC(C)(C)O)sc1-c1cnc(NC2CCCC2)cc1C(F)(F)F [Example 27, (S)-5-(6-(Cyclopentylamino)-4-(trifluoromethyl)pyridin-3-yl)-N-(2-hydroxy-2-methylpropyl)-4-(2-methylpiperidine-1-carbonyl)thiazole-2-carboxamide] |  | 0.0084 | 106 | 0.016 |  |  |  | 
4 | C[C@H]1CCCCN1C(=O)c1nc(C(=O)NCC(C)(C)O)sc1-c1cnc(NCC(C)(C)C)cc1C(F)(F)F [Example 86, (S)—N-(2-Hydroxy-2-methylpropyl)-4-(2-methylpiperidine-1-carbonyl)-5-(6-(neopentylamino)-4-(trifluoromethyl)pyridin-3-yl)thiazole-2-carboxamide] | 127* % | 0.013 |  | 0.0028 |  |  |  | 
5 | C[C@H]1CCCCN1C(=O)c1nc(C(=O)NCC(C)(C)O)sc1-c1cnc(NC2CCCC2)cc1C(F)F [Example 41, (S)-5-(6-(Cyclopentylamino)-4-(difluoromethyl)pyridin-3-yl)-N-(2-hydroxy-2-methylpropyl)-4-(2-methylpiperidine-1-carbonyl)thiazole-2-carboxamide] |  | 0.0076 | 103 | 0.043 |  |  |  | 
6 | C[C@H]1CCCN1C(=O)c1nc(C(=O)NCC(C)(C)O)sc1-c1cnc(NC2CCCC2)cc1C(F)(F)F [Example 38, (S)-5-(6-(Cyclopentylamino)-4-(trifluoromethyl)pyridin-3-yl)-N-(2-hydroxy-2-methylpropyl)-4-(2-methylpyrrolidine-1-carbonyl)thiazole-2-carboxamide] |  | 0.015 | 108 | 0.081 |  |  |  | 
7 | C[C@H](Nc1cc(C(F)(F)F)c(-c2sc(C(=O)NCC(C)(C)O)nc2C(=O)N2C3CCC2CC3)cn1)C1CC1 [Example 51, 4-((1s,4s)-7-Azabicyclo[2.2.1]heptane-7-carbonyl)-5-(6-(((S)-1-cyclopropylethyl)amino)-4-(trifluoromethyl)pyridin-3-yl)-N-(2-hydroxy-2-methylpropyl)thiazole-2-carboxamide] | 101* % | 0.0048 |  |  |  |  |  | 0.021
8 | C[C@H](Nc1cc(C(F)(F)F)c(-c2sc(C(=O)NCC(C)(C)O)nc2C(=O)N2CCCC[C@@H]2C)cn1)C(F)(F)F [Example 47, N-(2-Hydroxy-2-methylpropyl)-4-((S)-2-methylpiperidine-1-carbonyl)-5-(4-(trifluoromethyl)-6-(((S)-1,1,1-trifluoropropan-2-yl)amino)pyridin-3-yl)thiazole-2-carboxamide] | 96* % | 0.0054 |  | 0.0098 |  |  |  | 
9 | C[C@H]1CCCN1C(=O)c1nc(C(=O)NCC(C)(C)O)sc1-c1cnc(NCC(C)(C)C)cc1C(F)(F)F [Example 87, (S)—N-(2-Hydroxy-2-methylpropyl)-4-(2-methylpyrrolidine-1-carbonyl)-5-(6-(neopentylamino)-4-(trifluoromethyl)pyridin-3-yl)thiazole-2-carboxamide] | 140* % | 0.029 |  | 0.025 |  |  |  | 

Second part, led by results:

Row | RORγt (FL) Reporter Assay B or C, % inhibition (value marked *) (full-length human RORγt; Conditions B or C) | IC50 (full-length human RORγt; [3]) [µM] | inhibition at 6 µM (full-length human RORγt) [%] | IC50 [1, 4] [µM] | inhibition at 3 µM (full-length human RORγt) [%] | IC50 (full-length human RORγt; [5]) [µM] | SMILES | IC50 (full-length human RORγt; RORγt (FL) Reporter Assay B or C, IC50 (μM), Conditions B or C) [µM] | IC50 [1, 2] [µM]
10 | 109* % | 0.027 |  | 0.019 |  |  | C[C@H](Nc1cc(C(F)(F)F)c(-c2sc(C(=O)NCC(C)(C)O)nc2C(=O)N2CC(F)(F)C[C@@H]2C)cn1)C1CC1 [Example 142, 5-(6-(((S)-1-Cyclopropylethyl)amino)-4-(trifluormethyl)pyridin-3-yl)-4-((S)-4,4-difluoro-2-methylpyrrolidine-1-carbonyl)-N-(2-hydroxy-2-methylpropyl)thiazole-2-carboxamide] |  | 
11 | 106* % | 0.076 |  | 0.013 |  |  | C[C@H](Nc1cc(C(F)F)c(-c2sc(C(=O)NCC(C)(C)O)nc2C(=O)N2CCCC[C@@H]2C)cn1)C(F)(F)F [Example 144] |  | 
12 | 100* % | 0.023 |  | 0.0055 |  |  | C[C@H]1CC(F)(F)CN1C(=O)c1nc(C(=O)NCC(C)(C)O)sc1-c1cnc(NC2(C)CCC2)cc1C(F)(F)F [Example 141, (S)-4-(4,4-Difluoro-2-methylpyrrolidine-1-carbonyl)-N-(2-hydroxy-2-methylpropyl)-5-(6-((1-methylcyclobutyl)amino)-4-(trifluoromethyl)pyridin-3-yl)thiazole-2-carboxamide] |  | 
13 | 107* % | 0.023 |  | 0.018 |  |  | CC[C@H](Nc1cc(C(F)(F)F)c(-c2sc(C(=O)NCC(C)(C)O)nc2C(=O)N2CCC[C@@H]2C)cn1)C1CC1 (relative stereo) [Example 128, 5-(6-(((S*)-1-Cyclopropylpropyl)amino)-4-(trifluoromethyl)pyridin-3-yl)-N-(2-hydroxy-2-methylpropyl)-4-((S)-2-methylpyrrolidine-1-carbonyl)thiazole-2-carboxamide] |  | 
14 | 108* % | 0.021 |  | 0.0067 |  |  | C[C@H]1CC(F)(F)CN1C(=O)c1nc(C(=O)NCC(C)(C)O)sc1-c1cnc(NC2(C(F)(F)F)CCC2)cc1C(F)F [Example 124, (S)-4-(4,4-Difluoro-2-methylpyrrolidine-1-carbonyl)-5-(4-(difluoromethyl)-6-((1-(trifluoromethyl)cyclobutyl)amino)pyridin-3-yl)-N-(2-hydroxy-2-methylpropyl)thiazole-2-carboxamide] |  | 
15 | 115* % | 0.028 |  | 0.022 |  |  | C[C@H]1CC(F)(F)CN1C(=O)c1nc(C(=O)NCC(C)(C)O)sc1-c1cnc(NCC(C)(C)C)cc1C(F)F [Example 115, (S)-4-(4,4-Difluoro-2-methylpyrrolidine-1-carbonyl)-5-(4-(difluoromethyl)-6-(neopentylamino)pyridin-3-yl)-N-(2-hydroxy-2-methylpropyl)thiazole-2-carboxamide] |  | 
16 | 95* % | 0.0068 |  | 0.063 |  |  | C[C@H]1CCCN1C(=O)c1nc(C(=O)NC[C@@H](O)C(C)(C)O)sc1-c1cnc(NC(C)(C)C)cc1C(F)(F)F (single isomer, unassigned) [Example 243, 5-(6-(tert-Butylamino)-4-(trifluoromethyl)pyridin-3-yl)-N—((R*)-2,3-dihydroxy-3-methylbutyl)-4-((S)-2-methylpyrrolidine-1-carbonyl)thiazole-2-carboxamide] |  | 
17 |  |  |  | 0.089 | 100 | 0.036 | C[C@H]1CCCN1C(=O)c1nc(C(=O)NCc2n[nH]c(=O)o2)sc1-c1cnc(NC(C)(C)C)cc1C(F)(F)F [Example 305, (S)-5-(6-(tert-Butylamino)-4-(trifluoromethyl)pyridin-3-yl)-4-(2-methylpyrrolidine-1-carbonyl)-N-((5-oxo-4,5-dihydro-1,3,4-oxadiazol-2-yl)methyl)thiazole-2-carboxamide] |  | 
18 |  |  |  | 0.011 | 108 | 0.0056 | C[C@H](NC(=O)c1nc(C(=O)N2CCC[C@@H]2C)c(-c2cnc(NC(C)(C)C)cc2C(F)(F)F)s1)C(C)(C)O [Example 336, 5-[6-(tert-Butylamino)-4-(trifluoromethyl)-3-pyridyl]-N-[(1S)-2-hydroxy-1,2-dimethyl-propyl]-4-[(2S)-2-methylpyrrolidine-1-carbonyl]thiazole-2-carboxamide] |  | 
